Results from publication PMC5845645, “QSAR-Driven Design and Discovery of Novel Compounds With Antiplasmodial and Transmission Blocking Activities” (Frontiers in Pharmacology, 2018).
Read-outs that look alike come from different tables or passages of the source.

How the values were obtained:
[1] = tested on: P. falciparum 3D7; assay: Growth inhibition by SYBR Green I, chloroquine-sensitive strain; type: cell-based; details: Plasmodium falciparum, read-out: IC50 3D7
Procedure: (§1) Chloroquine-sensitive (3D7) and multidrug-resistant (W2) strains were cultured in RPMI 1640 medium supplemented with 0.05 mg/mL gentamycin, 38.4 mM HEPES, 0.2% sodium bicarbonate, and 10% O^+ human serum, as previously described in a standardized protocol ([Trager and Jensen, 1976]). Then, erythrocytes were added to the culture to obtain a 5% hematocrit, and incubated at 37°C under 5% CO2 atmosphere, with daily exchange of medium. The parasitemia was monitored daily in smears stained with Giemsa. Synchronic cultures in the ring stage were obtained by two consecutive treatments at 48 h intervals with a 5% solution of D-sorbitol ([Lambros and Vanderberg, 1979]).
(§2) Parasites synchronized at the ring stage, with 0.5% parasitemia and 2% hematocrit were distributed in each well, separately. The compounds were tested in triplicates, using 12 point of concentration, prepared in two-fold dilution (40 μM – ∼0.019 μM) over 72 h. Chloroquine and pyrimethamine were used as control. Subsequently, the in vitro susceptibility of parasite to tested drugs was measured by SYBR Green according to [Hartwig et al. (2013)]. Briefly, 100 μL of lysis buffer (20 mM Tris, 5 mM EDTA, 0.008% wt/vol saponin, 0.08% vol/vol Triton X-100, and 0.4 μL/mL of SYBR Green) were added in each well of a new black 96-well plate and 100 μL of parasite culture incubated with drugs were added. After homogenization, the plates were incubated for 1 h in the dark. Fluorescence was measured at 490 nm excitation and 540 nm emission (CLARIOstar, Labtech BMG). The IC50 was calculated by plotting the Log doses vs. Inhibition (expressed as a percentage relative to the control) in Prism 6 (GraphPad Software Inc.).

[2] = tested on: P. falciparum W2; assay: Growth inhibition by SYBR Green I, multidrug-resistant strain; type: cell-based; details: Plasmodium falciparum, read-out: IC50 W2
Procedure: as §1, §2

[3] = Cytotoxicity assay (MTT reduction); type: cell-based, monkey; details: monkey; COS7 cells, 72 h
Procedure: (§3) Cytotoxicity assays used COS7 cells (fibroblast-like cell lines derived from monkey kidney tissue), grown in DMEM medium supplemented with 10% fetal bovine serum and 0.05 mg/mL gentamicin in atmosphere containing 5% CO2 at 37°C. Drug cytotoxicity in COS7 cells was determined in duplicate, using 12 point of concentration, prepared in two-fold dilution (200 μM – ∼ 0.097 μM). After the incubation period (72 h), the cell viability analysis were done by the MMT reduction method (3-[4,5-dimethyl-thiazol-2-yl]-2,5-diphenyltetrazolium […] ([Mosmann, 1983]). The optical density was determined at 570 nm (CLARIOstar, Labtech BMG) and the 50% cytotoxicity concentrations (CC50) was expressed as the percent viability relative to the control. The selectivity index of the compounds was determined by the following expression:
(§4) Where COS7 CC50 corresponds to the 50% cytotoxic concentration on COS7 cells and Pf IC50 is the 50 % inhibitory concentration on P. falciparum (3D7).

[4] = tested on: COS7 cells; assay: Cytotoxicity assay (MTT reduction); type: cell-based, monkey; details: selectivity index = COS7 CC50 / Pf IC50 (3D7)
Procedure: as §3, §4

[5] = tested on: P. berghei ANKA; assay: Ookinete assay (gametocyte to ookinete conversion); type: cell-based; details: Plasmodium berghei, 24 h, 21°C, ookinete formation relative to DMSO control
Procedure: All animal procedures were carried out in accordance to the Brazilian College of Animal Experimentation (COBEA). This research protocol was approved by the Ethics Committee of the Institute of Biomedical Sciences – University of Sao Paulo, protocol number 132/2014-CEUA. C57BL/6 mice received an intraperitoneal injection of P. berghei ANKA infected erythrocytes, and four days after infection, a mouse with parasitemia between 4 and 6% and gametocytemia > 0.4% was selected as blood donor for cardiac puncture. Four microliters of the infected blood was dispensed in 80 μl of ookinete medium ([Blagborough et al., 2012]) at 21°C with DMSO control or with 10 μM of the tested compounds. The assay was incubated at 21°C for 24 h and 2 μl of the blood at the bottom of the tubes was spread onto a glass slide, stained with Giemsa and analyzed under a direct light microscope. The total number of formed ookinetes were counted in each slide (triplicate for each condition), and inhibition was calculated in relation to the total ookinetes formed in the control condition.

[6] = set-up: method as in Hit2Lead library; details: calculated; ref Hit2Lead library; cited from earlier work
[7] = target: PfdUTPase; set-up: method as in earlier work; details: pKi = -logKi of literature Ki, ref Nguyen et al., 2005, 2006, Whittingham et al., McCarthy et al., 2009, Baragaña et al., 2011, Hampton et al., Ruda et al.; cited from earlier work
[8] = asexual blood stage, chloroquine-sensitive 3D7, 72 h
[9] = asexual blood stage, multidrug-resistant W2, 72 h

Row | SMILES | IC50 [1, 8] [µM] | IC50 [2, 9] [µM] | PfdUTPase inhibition (pKi) [7] | other results
1 | CCc1nc(N)nc(N)c1-c1ccc(Cl)cc1 [Pyrimethamine, reference compound] | 0.044 ± 0.009 | 14.7 ± 3.94 | – | –
2 | COc1ccc(C(OCC2OC3C(Oc4nc(=O)ccn43)C2O)(c2ccccc2)c2ccc(OC)cc2)cc1 (stereo not drawn) [LabMol-144] | 7.1 ± 2.53 | 4.23 ± 1.18 | – | CC50 at 72 h [3]: 81.7 ± 25.7 µM; SI [4]: 11.7; inhibition at 10 µM [5]: 44.6 ± 2.4%; logS [6]: −5.36
3 | O=C(O)CCCNC(=O)C(CCOC(c1ccccc1)(c1ccccc1)c1ccccc1)Cn1ccc(=O)[nH]c1=O (stereo not drawn) [Compound 4] | – | – | 6.70 | –
4 | CC(C)(C)[Si](C)(C)OC1CC(n2ccc(=O)[nH]c2=O)OC1CO (stereo not drawn) [Compound 127] | – | – | 3.19 | –
5 | N#Cc1ccc(C(OCC2OC(n3ccc(=O)[nH]c3=O)CC2O)(c2ccccc2)c2ccccc2)cc1 (stereo not drawn) [Compound 20] | – | – | 6.03 | –
6 | O=c1ccn(C2CC(O)C(CNC(c3ccccc3)(c3ccccc3)c3ccccc3)O2)c(=O)[nH]1 (stereo not drawn) [Compound 1] | – | – | 6.70 | –
7 | COc1ccc(C(OCC2OC(n3ccc(=O)[nH]c3=O)C(O)C2O)(c2ccccc2)c2ccccc2)cc1 (stereo not drawn) [LabMol-146] | 6.1 ± 1.95 | 3.2 ± 2.12 | – | CC50 at 72 h [3]: 52 ± 16.4 µM; inhibition at 10 µM [5]: 7.3 ± 7.3%; logS [6]: −5.04
8 | CCN(CC)CCCC(C)Nc1ccnc2cc(Cl)ccc12 (stereo not drawn) [Chloroquine, reference compound] | – | – | – | IC50 ([1]; 3D7, 72 h): 0.011 ± 0.0006 µM; IC50 ([2]; W2, 72 h): 0.181 ± 0.027 µM
9 | O=c1ccn([C@H]2C[C@H](O)[C@@H](CNC(c3ccccc3)c3ccccc3)O2)c(=O)[nH]1 [Compound 3, 2′,5′-dideoxy-5′-[(diphenylmethyl)amino]uridine] | – | – | 6.70 | –
10 | COc1ccc2c(c1)c(/C=C/c1nc3ccccc3c(=O)n1-c1ccccc1)c(C)n2C [LabMol-145] | 17.1 ± 16.2 | 15.3 ± 3.29 | – | CC50 at 72 h [3]: 46 ± 13.4 µM; SI [4]: 2.7; inhibition at 10 µM [5]: 13.2 ± 24%; logS [6]: −6.74
11 | CC(C)(C)[Si](C)(C)OC1CC(n2ccc(=O)[nH]c2=O)OC1CNP(=O)(Oc1ccccc1)Oc1ccccc1 (stereo not drawn) [Compound 87] | – | – | 4.17 | –
